Series [1] can be described thus: Heme titration, stoichiometry and binding constant analysis (UV/visible). As for the experimental part:
FIGS. 14A-14P depict stoichiometry and binding constant analysis of peptide titrations (0-1000 μM XX in 50 μM titrants) into heme solutions (50 μM) in Hepes buffer (right) or 10 mM NH4OH (left). UV/visible spectroscopy and plots of [Peptide]/[Heme] vs. absorption (λSoret). The solid lines represent the binding constant analysis and were obtained in Origin v9.1 by applying equation 1 (FIG. 15). The following values were fixed: M=5×10^−5 M, 1=0.1 cm. All other values were permitted to float for the first round of analysis. Once n was determined, a common integer was applied to each data set within the conditions employed, e.g. n=3 for HEPES and n=6 for 10 mM NH4OH. The vertical line at x=10 marks the samples that were analyzed further by UV/vis and EPR.
FIG. 15 is the equation employed for stoichiometry and binding constant analysis; the follow variables are used: Ao, initial absorption; ϵB, extinction of bound heme; ϵs, extinction coefficient contribution from scattering; x, ratio of peptide to heme; n, set stoichiometry of peptide to heme; Kd, dissociation (binding) constant M, molar concentration of heme; l, cuvette pathlength.
Sample Preparation. Each peptide (3-4 mg) was dissolved in nanopure water (Millipore A10) to obtain a 1 wt % solution, c16-AAL3K3-CO2H (SEQ ID NO: 9) (1 wt %, 8.9 mM), c16-AHL3K3-CO2H (SEQ ID NO: 3) (1 wt %, 8.4 mM), c16-HHL3K3-CO2H (SEQ ID NO: 4) (1 wt %, 7.9 mM) and c16-MHL3K3-CO2H (SEQ ID NO: 5) (1 wt %, 8.0 mM). Hemin (Porcine, Sigma-Aldrich) was dissolved in DMSO (Sigma Aldrich) to achieve a 10 mM stock solution. Note: He-min/DMSO stock solutions were always made to ensure that the final DMSO concentration in the sam-ple was less than 1% (v/v). Typically, 38 μL of a 1 wt % stock solution was dissolved in 260 μL of ei-ther HEPES (50 mM HEPES, 100 mM NaCl pH 7.0) or 10 mM NH4OH, pH 10.5 to yield a 1 mM sample. […] Titration experiments analyzed samples that contained 50 μM Heme in either Hepes buffer or 10 mM NH4OH. […]

Series [2] is described as follows: Spectroelectrochemistry, midpoint potential. It is filed as physicochemical. As for the experimental part:
Electrochemistry. The samples were placed in a spectroecltrochemical cell (1 mm quartz) equipped with a platinum mesh working electrode, platinum wire auxiliary electrode, and a Ag/AgCl reference electrode (Basi, Inc.). […] Each applied voltage setting was allowed to equilibrate for a minimum of 20 minutes prior to UV/visible spectral acquisition (Perkin Elmer, Lambda 950, UV/vis/NIR spectrophotometer). Midpoint potential analysis was achieved by fitting a standard Boltzmann curve to the obtained data (OriginPro 9.1).

The nature of series [3]: Peroxidase activity assay (TMB oxidation with H2O2). In kind it is biochemical. The following applies: for peroxidase activity (oxidation of TMB): assemblies prepared in pH 7 HEPES (micelles), assay at pH 7, peptide 10 μM, heme 1 μM; for peroxidase activity over extended times: TMB ~300 μM, H2O2 ~300 μM, Peptide 10 μM, Heme 1 μM, HEPES pH 7. As for the experimental part:
Peroxidase Activity Assay. Peroxidase activity was monitored using a Varian Cary 50 spectrophotometer and the kinetics software package. 652 nm was the chosen wavelength based on its characterization in the literature (extinction coefficient: 39,000 M−1 cm-1). In a solution of HEPES buffer, pH 7 (50 mM HEPES 100 mM NaCl), a commercially available cocktail of 3,3′,5,5′-Tetramethylbenzidine (TMB) and H2O2 (both ˜3 mM, purchased from Sigma-Aldrich) was diluted 1:10. This was monitored for 1 minute to detect any changes in the background then protein was added (prepared as above at 500 μM peptide and 50 μM heme) to a final concentration of 10 μM (1 μM Heme). The reaction was allowed to run for 15 minutes to assure completion. In the case of Michaelis-Menten analyses two stock solutions of TMB (10 mg/mL, 41.6 mM in DMSO) and peroxide (52.8 mM diluted in H2O, H2O2 stock concentration standardized by the method of Klassen et. al.) (57) were made so the concentrations could be varied de-pending on the experiment. When varying peroxide concentration TMB was at a concentration of 300 μM. Michaelis-Menten curves were fit using Origin 9.1 software to the equation (v0=kCat[E]0[S]0/(KM+[S]0)). Catalytic efficiency values (kCat/KM) were determined by fitting the linear portion of those curves to the equation (v0=(kCat/KM)[E]0[S]0). Total amount of oxidized TMB was calcu-lated by integrating the absorbance at 652 nm (done with Origin 9.1 software), and dividing that value by the extinction coefficient.
Many natural and synthetic heme proteins display peroxidase activity, a natural reaction that catalyzes the oxidation of high potential substrates using hydrogen peroxide (H2O2). Here, we employed heme-peroxidase catalysis as a benchmark reaction to investigate how supramolecular morphology in PA-Heme assemblies can control catalytic reactivity. (53) We have chosen the established protocol where H2O2 activated by the XXHeme assemblies reacts with the colorless molecule 3,3′,5,5′-tetramethylbenzidine (TMB) to yield the oxidized blue diimine product and water. (54) All of these assays were carried out in pH 7 HEPES buffer. Peptide assemblies were prepared in either pH 7 HEPES or 10.5 NH4OH and then diluted 50 fold into the reaction mixture to maintain standard reaction conditions. […] The rates of these peptides are consistent with the Michaelis-Menten enzyme kinetics model (FIGS. 19C, 19D, and 21). […] Applicants show a clear and significant dependence of peroxidase activity dependent on supramolecular morphology. […] The micelle structures offer a more dynamic assembly that allows substrate to interact with the engineered heme active site.

“Also recorded” adds a separate entry of the source. The star is where a group is joined. Palmitoyl = CCCCCCCCCCCCCCCC(=O)*

As for “c16-HHL3K3-CO2H (Palmitoyl-HHLLLKKK-OH; also: heme) [HHHeme, XXHeme denotes the holo state]”, in series [1] (micelles), the “heme binding affinity (Kd), in words” value is “highest binding affinity”. In addition, the “midpoint potential (EM) vs. SHE” value in series [2] (fibers, 10 mM NH4OH) is −333 mV; in series [2] (micelles, HEPES) it was −270 mV. For the same substance, in series [3], the “peroxidase activity (oxidation of TMB)” value is given as “varying degrees of peroxidase activity; also recorded: low reactivity compared to the other peptides”.

Turning to “c16-MHL3K3-CO2H (Palmitoyl-MHLLLKKK-OH; also: heme) [MHHeme, XXHeme denotes the holo state]”, the “heme binding affinity (Kd), in words” value in series [1] (fibers, compared with micelles) was “decrease in heme binding affinity”. For the same substance, the “midpoint potential (EM) vs. SHE” value in series [2] (fibers, 10 mM NH4OH) is −442 mV. Moreover, the “midpoint potential (EM) vs. SHE” value in series [2] (micelles, HEPES) is reported as −312 mV. In series [3], the “peroxidase activity over extended times” value is reported as “most initial activity” and the “peroxidase activity (oxidation of TMB)” value is recorded as “varying degrees of peroxidase activity”. Besides, the “kCat, in words” value in series [3] (micelles, pH 7) is “higher kCat, than HHHeme”.

With “c16-AHL3K3-CO2H (Palmitoyl-AHLLLKKK-OH; also: heme) [AHHeme, XXHeme denotes the holo state]”, in series [1] (fibers, compared with micelles), the “heme binding affinity (Kd), in words” value is reported as “binding affinity actually increases”. Further, the “midpoint potential (EM) vs. SHE” value in series [2] (fibers, 10 mM NH4OH) is recorded as −655 mV; in series [2] (micelles, HEPES), −315 mV. In addition, the “peroxidase activity over extended times” value in series [3] is “most initial activity”. The “peroxidase activity (oxidation of TMB)” value in series [3] is “varying degrees of peroxidase activity”.

“c16-AAL3K3-CO2H (Palmitoyl-AALLLKKK-OH; also: heme) [AAHeme, control peptide amphiphile without heme coordination site; XXHeme denotes the holo state (coordinated heme)]”: in series [3], the “peroxidase activity over extended times” value is “does not appear to have any activity” and the “peroxidase activity (oxidation of TMB)” value is listed as “not reactive”.

For the origin of these results see patent publication US10584146B2, “Heme peptide materials for anti-inflammatory regenerative nanobiomedicine” (UCHICAGO ARGONNE, LLC, priority 2016, dated 2020).
